In patent publication US20250332173A1, “COMPOUNDS AND METHODS FOR MODULATING NUCLEIC ACID SPLICING” (REMIX THERAPEUTICS INC., priority 2021, published 2025):
Structures can show the parent of a compound that is named as a salt. Where two headings read alike, the source gives them in different places.

How the values were obtained:
[1] = system: HTT mRNA; experiment: RT-qPCR splicing assay, HTT canonical junction (CJ) and alternative junction (AJ) mRNA; type: cell-based, human; conditions: Homo sapiens; for AC50: increase in HTT alternative junction (AJ) mRNA, read-out: HTT AJ AC50
In short: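 24 h treatment, 37 °C/5% CO2; A673 or K562; 11-pt 3-fold series, top 10 uM final; DMSO ≤0.25%. Cell lysis with DNase I, then 1-step RT-qPCR. Housekeeping normalization: PPIA (A673), GAPDH or GUSB (K562).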

[2] = system: SMN2 mRNA; experiment: RT-qPCR splicing assay, SMN2 canonical junction (CJ) mRNA; type: cell-based, human; conditions: Homo sapiens; Table 5 panel; canonical junction qPCR; compound concentration having 50% response in CJ decrease; read-out: SMN2 IC50 (decrease in CJ mRNA levels)
In short: (§1)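 Canonical exon-exon junction transcript levels measured by one-step RT-qPCR of cell lysates, normalized to a housekeeping gene (GAPDH, GUSB or PPIA). Cells used were A673 or K562, exposed for 24 h to compound in 11-point, 3-fold series from 10 uM, with final DMSO at or below 0.25%.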

[3] = system: Target C; experiment: RT-qPCR splicing assay panel, Target C canonical junction (CJ) mRNA; type: cell-based, human; conditions: Homo sapiens; Table 5 panel; canonical junction qPCR; compound concentration having 50% response in CJ decrease; read-out: Target C IC50 (decrease in CJ mRNA levels)
In short: as §1

[4] = system: K562 (human chronic myelogenous leukemia) cells; experiment: Cell Titer Glo 2.0 cell viability assay; type: cell-based; conditions: Homo sapiens, K562, 72 h, K562 cells, 72 hours, Cell Titer Glo 2.0; read-out: K562 GI50
[5] = decrease in HTT canonical junction (CJ) mRNA, RT-qPCR, read-out: HTT CJ IC50
[6] = Table 5 panel, canonical junction qPCR, compound concentration having 50% response in CJ decrease, read-out: HTT IC50 (decrease in CJ mRNA levels)

Row | SMILES | IC50 [1, 5] [nM] | AC50 ([1]; RT-qPCR) [nM] | IC50 [1, 6] [nM] | IC50 [2] [nM] | IC50 [3] [nM] | GI50 [4] [nM]
1 | Cc1cn2nc(-c3ccc4c(=O)n(C5CCNCC5)ccc4c3)cc(C(=O)N(C)C)c2n1 [Compound 524, N, N, 2-trimethyl-6-[1-oxo-2-(4-piperidyl)-6-isoquinolyl]imidazo[1,2-b]pyridazine-8-carboxamide] | > 10000 | > 10000 | > 10000 | > 10000 | > 10000 | > 10000
2 | Cc1cn2nc(-c3ccc4c(=O)n(C5CCNCC5)ccc4c3)cc(CO)c2n1 [Compound 525, 6-[8-(hydroxymethyl)-2-methyl-imidazo[1,2-b]pyridazin-6-yl]-2-(4-piperidyl) isoquinolin-1-one] | 100 to 1000 | < 100 | < 100 | < 100 | 100 to 1000 | 100 to 1000
3 | Cc1cn2nc(-c3ccc4c(=O)n(C5CCNCC5)ccc4c3)cc(OCc3ccccc3)c2n1 [Compound 526, 6-(8-benzyloxy-2-methyl-imidazo[1,2-b]pyridazin-6-yl)-2-(4-piperidyl) isoquinolin-1-one] | 100 to 1000 | 100 to 1000 | 100 to 1000 | < 100 | 1000 to 10000 | 100 to 1000
4 | COC(=O)Cc1cc(-c2ccc3c(=O)n(C4CCNCC4)ccc3c2)nn2cc(C)nc12 [Compound 527] | 100 to 1000 | 100 to 1000 | 100 to 1000 | < 100 | 1000 to 10000 | 1000 to 10000
5 | Cc1cn2nc(-c3ccc4c(=O)n(C5CCNCC5)ccc4c3)cc(CC(N)=O)c2n1 [Compound 528, 2-(2-methyl-6-(1-oxo-2-(piperidin-4-yl)-1,2-dihydroisoquinolin-6-yl)imidazo[1,2-b]pyridazin-8-yl) acetamide] | 1000 to 10000 | 100 to 1000 | 100 to 1000 | < 100 | 1000 to 10000 | 1000 to 10000
6 | CCOC(=O)c1cc(-c2ccc3c(=O)n(C4CCNCC4)ccc3c2)nn2cc(C)nc12 [Compound 529, ethyl 2-methyl-6-[1-oxo-2-(4-piperidyl)-6-isoquinolyl]imidazo[1,2-b]pyridazine-8-carboxylate] | 1000 to 10000 | 100 to 1000 | 100 to 1000 | < 100 | 1000 to 10000 | 1000 to 10000
7 | Cn1cc2c(=O)n(-c3ccc4c(=O)n(C5CCNCC5)ccc4c3)ccc2n1 [Compound 530, 6-{2-methyl-4-oxopyrazolo[4,3-c]pyridin-5-yl}-2-(piperidin-4-yl)isoquinolin-1-one] | > 10000 | > 10000 | > 10000 | > 10000 | > 10000 | > 10000
8 | Cc1cn2nc(-c3ccc4c(=O)n(C5CCNCC5)ccc4c3)cc(CC(=O)O)c2n1 [Compound 531, 2-[2-methyl-6-[1-oxo-2-(4-piperidyl)-6-isoquinolyl]imidazo[1,2-b]pyridazin-8-yl]acetic acid] | 100 to 1000 | < 100 | < 100 | < 100 | 100 to 1000 | 100 to 1000
9 | Cc1cn2nc(-c3ccc4c(=O)n(C5CCNCC5)ccc4c3)cc(CCO)c2n1 [Compound 533, 6-[8-(2-hydroxyethyl)-2-methyl-imidazo[1,2-b]pyridazin-6-yl]-2-(4-piperidyl)isoquinolin-1-one] | 100 to 1000 | 100 to 1000 | 100 to 1000 | < 100 | 1000 to 10000 | 100 to 1000
10 | CNC(=O)Cc1cc(-c2ccc3c(=O)n(C4CCNCC4)ccc3c2)nn2cc(C)nc12 [Compound 534, N-methyl-2-[2-methyl-6-[1-oxo-2-(4-piperidyl)-6-isoquinolyl]imidazo[1,2-b]pyridazin-8-yl]acetamide] | 1000 to 10000 | 1000 to 10000 | 1000 to 10000 | < 100 | 1000 to 10000 | 1000 to 10000
11 | Cc1cn2nc(-c3ccc4c(=O)n(C5CCNCC5)ccc4c3)cc(Cc3nnc[nH]3)c2n1 [Compound 535, 6-[2-methyl-8-(4H-1,2,4-triazol-3-ylmethyl)imidazo[1,2-b]pyridazin-6-yl]-2-(4-piperidyl) isoquinolin-1-one] | 1000 to 10000 | 1000 to 10000 | 1000 to 10000 | < 100 | > 10000 | 1000 to 10000
12 | Cc1cn2nc(-c3ccc4c(=O)n(C5CCNCC5)ccc4c3)cc(Cc3nnn[nH]3)c2n1 [Compound 536, 6-[2-methyl-8-(1H-tetrazol-5-ylmethyl)imidazo[1,2-b]pyridazin-6-yl]-2-(4-piperidyl) isoquinolin-1-one] | > 10000 | > 10000 | > 10000 | 1000 to 10000 | > 10000 | > 10000
13 | CCN1CCC(n2ncc3cc(-c4cc(C)c5nc(C)cn5n4)cc(F)c3c2=O)CC1 [Compound 537] | < 100 | < 100 | < 100 | < 100 | 100 to 1000 | 100 to 1000
14 | Cc1cn2nc(-c3cc(F)c4c(=O)n(C5CCN(CCF)CC5)ncc4c3)cc(C)c2n1 [Compound 538] | < 100 | < 100 | < 100 | < 100 | 100 to 1000 | 100 to 1000
15 | Cc1cn2nc(-c3cc(F)c4c(=O)n(C5CCN(C)CC5)ncc4c3)cc(C)c2n1 [Compound 539] | < 100 | < 100 | < 100 | < 100 | 100 to 1000 | 100 to 1000
16 | Cc1cn2nc(-c3cc(F)c4c(=O)n(C5CCNCC5)ncc4c3)cc(C)c2n1 [Compound 540] | < 100 | < 100 | < 100 | < 100 | < 100 | < 100
17 | Cc1cn2nc(-c3cc(O)c4c(=O)n(C5CCNCC5)ncc4c3)cc(C)c2n1 [Compound 541] | < 100 | < 100 | < 100 | < 100 | < 100 | < 100
18 | CCN1CCC(n2ncc3cc(-c4cc(C)c5nc(C)cn5n4)cc(O)c3c2=O)CC1 [Compound 542] | < 100 | < 100 | < 100 | < 100 | 100 to 1000 | 100 to 1000
19 | Cc1cn2nc(-c3cc(O)c4c(=O)n(C5CCN(C)CC5)ncc4c3)cc(C)c2n1 [Compound 543] | 100 to 1000 | < 100 | < 100 | < 100 | 100 to 1000 | 100 to 1000
20 | Cc1cn2nc(-c3ccc4c(=O)n(C5CCNCC5)ccc4c3)cc(Oc3ccccc3F)c2n1 [Compound 544, 6-[8-(2-fluorophenoxy)-2-methyl-imidazo[1,2-b]pyridazin-6-yl]-2-(4-piperidyl) isoquinolin-1-one; hydrochloride] | < 100 | < 100 | < 100 | < 100 | < 100 | 100 to 1000
21 | Cc1cn2nc(-c3ccc4c(=O)n(C5CCNCC5)ccc4c3)cc(Oc3cccc(F)c3)c2n1 [Compound 545, 6-[8-(3-fluorophenoxy)-2-methyl-imidazo[1,2-b]pyridazin-6-yl]-2-(4-piperidyl)isoquinolin-1-one; hydrochloride] | < 100 | < 100 | < 100 | < 100 | < 100 | < 100
